The test system of assay [1] is HIV IIIB virus. Kind of assay: Antiviral challenge assay, HIV IIIB replication in H9 or CEM cells, p24. The note with it: for suppression of HIV replication (p24) / inhibition of HIV replication (p24): HIV IIIB, 7 days; for suppression of HIV replication (p24): 15 μM pentamidine; for inhibition of HIV replication (p24): 10 μM AZT. Type of assay: cell-based, HIV-1. The protocol: H9 cells or CEM cells were challenged with HIV IIIB virus in the absence (PC) or presence of 15 μM pentamidine (PTD) or 10 μM AZT. Cells were grown for 7 days and the concentration of p24 were determined and the inhibition percentage were calculated. FIG. 13B: H9 cells or CEM cells were challenged with HIV IIIB virus in the absence or presence of varying concentration of pentamidine (PTD) or AZT. Cells were grown for 7 days and the concentration of p24 were determined.
The next experiment examined whether pentamidine could inhibit HIV replication in vivo. The H9 cells and CEM cells were challenged with HIV IIIB virus in the absence or presence of 15 μM pentamidine or 10 μM AZT, a HIV reverse transcriptase inhibitor.
Antiviral challenge assays using infectious laboratory and other HIV-1 strains: Appropriate cells, screened for viability and growth kinetics, are challenged with HIV-1 strain IIIB, NL4-3, JRFL or primary isolates. This is a modification of a standard method described by Ho (Ho 1991) for virus neutralization. The resultant inoculum is titrated by ID50 in uninfected CEM, H9 or PBMC cultures. 0.01 MOI HIV is inoculated onto 10^6 candidate cells for six hours at 37° C., and then washed three times with PBS. For screening assays, each cell culture supernatant is examined on day seven post infection and examined for reverse transcriptase activity or p24 concentration. For confirmation assays, cultures are followed for day 7, 14, 21 and 28 observations. Cells are fed twice weekly by removing one-half of the media. Viral inhibition is defined >50% reduction in RT activity or p24 compared with control culture, which were mock-treated.

For assay [2], the target named is FEN-1 (Homo sapiens, UniProt P39748). Kind of assay: FEN-1 nuclease assay with HIV CDF and regular 5′ flap model substrates. Type of assay: biochemical. The procedure:
0.25 or 0.5 pmol of purified recombinant FEN-1 were mixed with 1 pmol of regular 5′ flap substrate with a 3′ flap of single nucleotide or HIV CDF substrate, respectively in the presence of 0, 0.1, 0.2, 0.4, 0.6, 0.8, and 1.0 mM pentamidine isethionate salt. The reaction was carried out at 37° C. for 30 minutes. Substrates and products were analyzed with DNA sequencing PAGE and visualized with radio-autograph (upper panel). The amount of cleavage products and non-cleaved substrates were quantified with ImagineQuant and were shown in the bottom panel.
One pmol of HIV CDF substrate were mixed with 0, 0.01, 0.1, 1, and 3 pmol of purified recombinant FEN-1 in the absence or presence of 0.4 mM pentamidine isethionate salt. The reaction was carried out at 37° C. for 30 minutes. Substrates and products were analyzed with DNA sequencing PAGE and visualized with radio-autograph (upper panel). The amount of cleavage product and non-cleaved substrate were quantified with ImagineQuant and were shown in the bottom panel.
FIG. 12 is a graph line and chart showing kinetic analysis of FEN-1 cleavage of HIV CDF substrates in the absence and presence of pentamidine. 1 pmol of FEN-1 was incubated with 0, 0.125, 0.25, 0.375, 0.5, 1, and 2 pmol of HIV CDF substrates. The reaction were carried out at 37° C. for 10 min. The amount of cleavage product and non-cleaved substrate were quantified with ImagineQuant. The Michaelis-Menten kinetic parameters Km and Kcat (Bottom panel) were calculated with double-reciprocal plots of 1/v versus 1/[s] (Upper panel).
Nuclease assays. DNA model substrates were prepared as previously described (Zheng 2005). FEN-1 nuclease and/or D181A mutant was incubated with 1 pmol of indicated DNA substrates at 30° C. for 15 minutes. DNA substrates and products were separated in DNA sequencing PAGE and visualized with autoradiography.
Finally, the third criteria is in vitro inhibition of HIV-CDF processing. The inhibition of FEN-1 cleavage of HIV-CDF and regular 5′ flap structures by molecules selected after criteria 2 are examined in this test. Only the molecules that inhibit FEN-1 cleavage of HIV-CDF but not the regular 5′ flap structures are qualified for in vivo studies. The inhibition efficacy of HIV replication in H9 and CEM T cell lines by small molecules is determined with the HIV reverse transcriptase inhibitor AZT used as an inhibition control.

Assay [3] deals with HIV-1 vector HXB2-Hyg. Kind of assay: HIV-1 infection colony assay (hygromycin-resistant colonies) in HeLa CD4+ cells. The note with it: compared to control HeLa CD4+ cells. The format is cell-based. The procedure:
The cells are infected with a modified HIV-1 virus. Upon integration, the infected cells become hygromycin-resistant due to the expression of the drug-resistant gene from the proviral DNA. The integration efficiency is then determined by counting the colonies selected on Hygromycin B. The integration is confirmed by LTR-Tag assay.
A modified HIV-1 virus vector derived from strain HXB2 (HXB2-Hyg) with a newly created Bpm I site near the end of the U5 region in its 5′ LTR is prepared. This virus genome also contains a hygromycin-resistant gene for selecting virus-infected cells. This VSV-G pseudotyped virus is used to infect LaD cells along with LaF and LaP cells with m.o.i. of 1.0. The infected cells are cultured in a medium containing 200 μg/ml of Hygromycin B for 2 weeks. The virus-infected cells with the stable integrated provirus are hygromycin-resistant and grow into colonies. The colonies are stained with 0.2% crystal violet in 10% phosphate-buffered formalin (pH 7.0) and counted.
An LTR-Tag analysis method is used to detect HIV integration. […] For this reason, there are many fewer ^32P-labeled LTR-Tags prepared from the D181A overexpressing LaD cells in comparison to the radioactivity-labeled LTR-Tags prepared from the LaP cells. […]
HIV-1 infection colony assay. […] Hygromycin-resistant colonies were stained with 0.2% crystal violet in 70% ethanol, and the number of colonies was counted.

The subject of assay [4] is HIV-1 cDNA integration. Kind of assay: HIV-1 integration assay, Southern blot hybridization of host genomic DNA. Type of assay: cell-based. The note with it: expression in HeLa cells. The procedure: To further validate that inhibition of FEN-1 nuclease activity reduced HIV-1 cDNA integration, genomic DNA was isolated and the integration of viral cDNA into the host genome was detected by Southern blot hybridization. […] Both of the experiments indicate that the integration of HIV may be impaired under a FEN-1 deficient background.
HIV-1 integration assay. Genomic DNA was isolated from HIV-1 infected cells according to a previous protocol (Chen 1998). 20 μg of DNA was digested with EcoRV and BamHI and resolved on a native agarose gel. A 0.8 kb of HIV-1 specific DNA fragment, released by digestion of HIV cDNA with BamHI and BgIII, was used as a probe in Southern blot hybridization.

The subject of assay [5] is HIV-1 strain NL4-3 and III B. Kind of assay: HIV-1 replication in CEM T-cells over-expressing FEN-1 or D181A, secreted p24. The format is cell-based. The procedure:
In order to test the effects of FEN-1 function on HIV replication in its natural host cells, human T-cells, the CEM cells with the same construct shown in FIG. 4A were transfected under selection of G418. CEM cells (C), CEM cells expressing the c-myc-tagged hFEN-1 (F), or D181A mutant (A) were seeded at 0.5×10^4 cells per well in a 12-well plate. Duplicate plates were prepared for each cell line. The cells were challenged with two HIV-1 strains: NL4-3 and III B. Virus challenge proceeded at both 50 TCID50 and 5 TCID50. The cell culture supernatants were collected and the HIV-1 p24 was measured weekly for four weeks post-infection.
HIV-1 replication in CEM cells. CEM cells, or CEM cells infected with the hFEN-1 or D181A retroviral vector, were seeded at 0.5×10^4 cells per well of a 12-well plate. Duplicate plates were prepared for each cell line. The cells were challenged with HIV-1 strain NL4-3 and III B. Viral challenge was conducted at both 50 TCID50. Cell culture supernatants were collected and the HIV-1 p24 was measured weekly for four weeks post-infection. Syncytium formation due to the HIV-1 infection was monitored, and cells were photographed under a microscope weekly (FIGS. 6-7).

Setting [6] is: in the presence of 400 μM of pentamidine.

“Also recorded” adds a separate entry of the source.

Sequence of FEN-1 (P39748 whole entry): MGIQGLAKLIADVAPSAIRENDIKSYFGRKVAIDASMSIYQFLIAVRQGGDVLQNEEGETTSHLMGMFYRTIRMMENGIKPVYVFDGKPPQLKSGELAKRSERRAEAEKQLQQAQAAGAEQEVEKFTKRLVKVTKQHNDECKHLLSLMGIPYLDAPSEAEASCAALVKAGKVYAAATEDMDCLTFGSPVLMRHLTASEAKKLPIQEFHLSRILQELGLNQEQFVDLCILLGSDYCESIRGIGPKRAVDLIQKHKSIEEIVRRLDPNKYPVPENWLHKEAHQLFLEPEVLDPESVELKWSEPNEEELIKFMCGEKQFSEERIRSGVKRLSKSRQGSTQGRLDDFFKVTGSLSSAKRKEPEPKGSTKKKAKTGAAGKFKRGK

As for `N=C(N)c1ccc(OCCCCCOc2ccc(C(=N)N)cc2)cc1` [pentamidine], the “suppression of HIV replication (p24)” value in assay [1] (CEM cells) is 69.3%; in assay [1] (H9 cells), 98.8%. Moreover, the “inhibitory effect on HIV replication compared with AZT” value in assay [1] (T-cell lines) was “equal to or more effective than AZT; also recorded: equivalent to AZT”. Besides, the “inhibitory effect on HIV-1 replication relative to AZT” value in assay [1] (another T-cell line) is given as “about 70 % that of AZT”. Further, in assay [2], the “effect on FEN-1 cleavage of regular 5′ flap structures resembling RNA-DNA primers” value was “little effect”. In addition, in assay [2] (Michaelis-Menten, double-reciprocal plots, 37° C., 10 min), the “effect on kcat and Km of FEN-1 cleavage of HIV CDF substrates” value was “decrease”. Moreover, the “cleavage of both HIV CDF and regular 5′ flap substrates” value in assay [2] (concentrations higher than 1 mM) was “completely inhibited”. Besides, the “FEN-1's activity cleaving regular 5′ flap substrates retained” value in assay [2] (setting [6]) was “greater than 80%”. For the same molecule, in assay [2] (setting [6]), the “FEN-1 cleavage of HIV CDF structures suppressed” value worked out at 90%.

In the case of “D181A: dominant negative point mutant of human FEN-1, binds flap DNA but deficient in catalysis and nuclear localization”, the “decrease of HIV-1 integration, hygromycin-resistant CFUs” value in assay [3] is “more than 95 % CFUs”. For the same molecule, in assay [4], the “HIV-1 cDNA integration into host genome” value is on record as “significantly decreased”. In addition, in assay [5] (stable T-cell lines over-expressing the mutant), the “HIV-1 replication suppressed, secreted HIV p24 protein concentrations” value is “more than 99.9%”. In addition, the “HIV inhibition, culture supernatant p24” value in assay [5] (transduced CEM cells, HIVIIIB and HIVNL4-3, weekly for four weeks) was “strong HIV inhibition”. The “inhibition of wild type FEN-1 flap endonuclease activity in vitro” value in assay [2] (HIV CDF substrate, mutant 8-10 folds higher than wild type protein concentration) is recorded as “almost completely inhibit”. The “inhibition of FEN-1 activity with d-flap substrates” value in assay [2] (d-flap substrates, model for host cell RNA primer removal) is “does not inhibit”.

On to `Cc1cn([C@H]2C[C@H](N=[N+]=[N-])[C@@H](CO)O2)c(=O)[nH]c1=O` [AZT], for which the “inhibition of HIV replication (p24)” value in assay [1] (CEM cells) is 98.6%; in assay [1] (H9 cells), 100%.

Values taken from patent publication US7927790B2, “Suppression of HIV-1 replication via inhibition of human flap endonuclease-1-mediated HIV-1 central DNA flap processing” (priority 2005, dated 2011).
